Laboratory results as given in the supplement of paper PMC11451515.

Tests used:
Conditions in all cases: 48 h
[1] = tested on: SEM cells; test: AUC of viability dose-response curve (% viability x log10 dose units); higher = less sensitive
How it was run: (§1)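 Leukemia cells adapted to each medium were seeded at 500 or 1000 cells/well in 1536-well plates and dosed with library compounds in DMSO at 11 threefold doses from 47 μM to 0.79 nM for 48 h at 37°C. CellTiter-Glo One luminescence was normalised per plate to DMSO and cell-free wells, then fitted with a four-parameter log-logistic model over log10 doses. Area under the curve was taken from this fit by the trapezoidal rule, with curves above full viability scaled and curves failing quality control removed.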

[2] = tested on: P12-Ichikawa; test: as above
How it was run: as §1

[3] = tested on: NOMO1; test: as above
How it was run: as §1

[4] = tested on: SEM cells; test: cell viability relative to DMSO control; higher = less cytotoxic
How it was run: (§2)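 Library compounds in DMSO were pin-dosed in an 11-point threefold series (47 μM to 0.79 nM) onto leukemia cells in 1536-well plates (5 μl). Plates held 500 cells/well of NOMO1 or SEM or 1000 cells/well of P12-Ichikawa, each adapted for at least four passages in each medium. Luminescence was read with CellTiter-Glo One after 48 h at 37°C. Viability means the per-plate percentage relative to DMSO wells, using cell-free wells as background.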

[5] = tested on: P12-Ichikawa; test: as above
How it was run: as §2

[6] = tested on: NOMO1; test: as above
How it was run: as §2

NC(=O)[C@H]1CCS[C@@H]2C[C@]3(CCCN3C(=O)Cc3ccc(NC(=O)COc4ccc(Cl)cc4Cl)cc3)C(=O)N12
AUC of viability dose-response curve
Conditions	[1]	[2]	[3]
HPLM + 10% dialyzed FBS	376	316	356
RPMI 5 mM glucose + 10% FBS	325	343	378
RPMI 5 mM glucose + 10% dialyzed FBS	362	362	409

cell viability [%]
Conditions	[4]	[5]	[6]
HPLM + 10% dialyzed FBS, 0.000781 µM	96.1	113	111
HPLM + 10% dialyzed FBS, 0.00234 µM	101	115	138
HPLM + 10% dialyzed FBS, 0.00702 µM	94	120	123
HPLM + 10% dialyzed FBS, 0.0211 µM	107	110	134
HPLM + 10% dialyzed FBS, 0.0632 µM	104	114	139
HPLM + 10% dialyzed FBS, 0.19 µM	103	101	123
HPLM + 10% dialyzed FBS, 0.569 µM	97.7	73.1	102
HPLM + 10% dialyzed FBS, 1.71 µM	61.4	16.5	36.8
HPLM + 10% dialyzed FBS, 5.12 µM	38	18.6	39.9
HPLM + 10% dialyzed FBS, 15.4 µM	28.2	18.5	42.3
HPLM + 10% dialyzed FBS, 46.1 µM	31.5	12.8	52.3
RPMI 5 mM glucose + 10% FBS, 0.000781 µM	105	110	107
RPMI 5 mM glucose + 10% FBS, 0.00234 µM	106	109	129
RPMI 5 mM glucose + 10% FBS, 0.00702 µM	112	120	121
RPMI 5 mM glucose + 10% FBS, 0.0211 µM	107	111	131
RPMI 5 mM glucose + 10% FBS, 0.0632 µM	121	128	138
RPMI 5 mM glucose + 10% FBS, 0.19 µM	103	110	131
RPMI 5 mM glucose + 10% FBS, 0.569 µM	85.7	106	119
RPMI 5 mM glucose + 10% FBS, 1.71 µM	18.4	40.3	103
RPMI 5 mM glucose + 10% FBS, 5.12 µM	16.2	16.5	26.1
RPMI 5 mM glucose + 10% FBS, 15.4 µM	19.6	22.9	26.6
RPMI 5 mM glucose + 10% FBS, 46.1 µM	10.2	17.5	38.9
RPMI 5 mM glucose + 10% dialyzed FBS, 0.000781 µM	115	124	–
RPMI 5 mM glucose + 10% dialyzed FBS, 0.00234 µM	102	120	–
RPMI 5 mM glucose + 10% dialyzed FBS, 0.00702 µM	123	130	–
RPMI 5 mM glucose + 10% dialyzed FBS, 0.0211 µM	120	134	–
RPMI 5 mM glucose + 10% dialyzed FBS, 0.0632 µM	113	127	–
RPMI 5 mM glucose + 10% dialyzed FBS, 0.19 µM	114	125	–
RPMI 5 mM glucose + 10% dialyzed FBS, 0.569 µM	117	116	–
RPMI 5 mM glucose + 10% dialyzed FBS, 1.71 µM	66.6	70.3	–
RPMI 5 mM glucose + 10% dialyzed FBS, 5.12 µM	35.1	28.7	–
RPMI 5 mM glucose + 10% dialyzed FBS, 15.4 µM	20.8	39.2	–
RPMI 5 mM glucose + 10% dialyzed FBS, 46.1 µM	19.9	23.8	–

O=C(Nc1nnc(-c2ccco2)o1)c1cc(-c2ccccc2)nc2ccccc12
AUC of viability dose-response curve
Conditions	[1]	[2]	[3]
HPLM + 10% dialyzed FBS	442	379	393
RPMI 5 mM glucose + 10% FBS	348	448	455
RPMI 5 mM glucose + 10% dialyzed FBS	443	451	451

cell viability [%]
Conditions	[4]	[5]	[6]
HPLM + 10% dialyzed FBS, 0.000781 µM	87.5	113	92.3
HPLM + 10% dialyzed FBS, 0.00234 µM	96.5	99.3	103
HPLM + 10% dialyzed FBS, 0.00702 µM	96.3	103	117
HPLM + 10% dialyzed FBS, 0.0211 µM	95	116	124
HPLM + 10% dialyzed FBS, 0.0632 µM	91.5	113	118
HPLM + 10% dialyzed FBS, 0.19 µM	110	110	120
HPLM + 10% dialyzed FBS, 0.569 µM	95.3	116	114
HPLM + 10% dialyzed FBS, 1.71 µM	106	109	114
HPLM + 10% dialyzed FBS, 5.12 µM	103	44.4	65.5
HPLM + 10% dialyzed FBS, 15.4 µM	93	3.09	18.7
HPLM + 10% dialyzed FBS, 46.1 µM	4.54	3.16	6.68
RPMI 5 mM glucose + 10% FBS, 0.000781 µM	92.6	104	107
RPMI 5 mM glucose + 10% FBS, 0.00234 µM	75.1	105	101
RPMI 5 mM glucose + 10% FBS, 0.00702 µM	95.6	115	99.9
RPMI 5 mM glucose + 10% FBS, 0.0211 µM	79.7	110	105
RPMI 5 mM glucose + 10% FBS, 0.0632 µM	104	116	100
RPMI 5 mM glucose + 10% FBS, 0.19 µM	95.6	113	101
RPMI 5 mM glucose + 10% FBS, 0.569 µM	98.2	118	93
RPMI 5 mM glucose + 10% FBS, 1.71 µM	85	119	111
RPMI 5 mM glucose + 10% FBS, 5.12 µM	41.3	117	98.3
RPMI 5 mM glucose + 10% FBS, 15.4 µM	5.04	97.8	99.3
RPMI 5 mM glucose + 10% FBS, 46.1 µM	2.95	6.52	13.7
RPMI 5 mM glucose + 10% dialyzed FBS, 0.000781 µM	91.8	95.7	102
RPMI 5 mM glucose + 10% dialyzed FBS, 0.00234 µM	94.2	99.8	89.3
RPMI 5 mM glucose + 10% dialyzed FBS, 0.00702 µM	104	99.2	107
RPMI 5 mM glucose + 10% dialyzed FBS, 0.0211 µM	101	94.2	96.2
RPMI 5 mM glucose + 10% dialyzed FBS, 0.0632 µM	107	108	103
RPMI 5 mM glucose + 10% dialyzed FBS, 0.19 µM	109	105	112
RPMI 5 mM glucose + 10% dialyzed FBS, 0.569 µM	99	100	93.4
RPMI 5 mM glucose + 10% dialyzed FBS, 1.71 µM	95.3	105	117
RPMI 5 mM glucose + 10% dialyzed FBS, 5.12 µM	106	102	118
RPMI 5 mM glucose + 10% dialyzed FBS, 15.4 µM	77.8	93.2	106
RPMI 5 mM glucose + 10% dialyzed FBS, 46.1 µM	3.49	7.67	13.5

O=C1\C=C/C=C2/[C@H]3CNC[C@H](C3)CN12
AUC of viability dose-response curve
Conditions	[1]	[2]	[3]
HPLM + 10% dialyzed FBS	462	457	447
RPMI 5 mM glucose + 10% FBS	466	459	458
RPMI 5 mM glucose + 10% dialyzed FBS	456	459	464

cell viability [%]
Conditions	[4]	[5]	[6]
HPLM + 10% dialyzed FBS, 0.000781 µM	97.4	108	112
HPLM + 10% dialyzed FBS, 0.00234 µM	95.2	109	125
HPLM + 10% dialyzed FBS, 0.00702 µM	103	115	120
HPLM + 10% dialyzed FBS, 0.0211 µM	108	109	111
HPLM + 10% dialyzed FBS, 0.0632 µM	101	122	133
HPLM + 10% dialyzed FBS, 0.19 µM	106	122	126
HPLM + 10% dialyzed FBS, 0.569 µM	114	125	130
HPLM + 10% dialyzed FBS, 1.71 µM	104	123	129
HPLM + 10% dialyzed FBS, 5.12 µM	102	116	116
HPLM + 10% dialyzed FBS, 15.4 µM	112	97.5	97.9
HPLM + 10% dialyzed FBS, 46.1 µM	103	58.3	27.7
RPMI 5 mM glucose + 10% FBS, 0.000781 µM	101	116	105
RPMI 5 mM glucose + 10% FBS, 0.00234 µM	104	111	107
RPMI 5 mM glucose + 10% FBS, 0.00702 µM	102	120	124
RPMI 5 mM glucose + 10% FBS, 0.0211 µM	113	129	107
RPMI 5 mM glucose + 10% FBS, 0.0632 µM	123	122	110
RPMI 5 mM glucose + 10% FBS, 0.19 µM	114	125	120
RPMI 5 mM glucose + 10% FBS, 0.569 µM	103	124	112
RPMI 5 mM glucose + 10% FBS, 1.71 µM	127	132	123
RPMI 5 mM glucose + 10% FBS, 5.12 µM	113	113	111
RPMI 5 mM glucose + 10% FBS, 15.4 µM	112	112	100
RPMI 5 mM glucose + 10% FBS, 46.1 µM	61.2	54.8	46.9
RPMI 5 mM glucose + 10% dialyzed FBS, 0.000781 µM	108	111	96.7
RPMI 5 mM glucose + 10% dialyzed FBS, 0.00234 µM	76.6	109	98.4
RPMI 5 mM glucose + 10% dialyzed FBS, 0.00702 µM	101	110	107
RPMI 5 mM glucose + 10% dialyzed FBS, 0.0211 µM	118	108	109
RPMI 5 mM glucose + 10% dialyzed FBS, 0.0632 µM	112	121	119
RPMI 5 mM glucose + 10% dialyzed FBS, 0.19 µM	123	120	118
RPMI 5 mM glucose + 10% dialyzed FBS, 0.569 µM	120	132	122
RPMI 5 mM glucose + 10% dialyzed FBS, 1.71 µM	119	126	112
RPMI 5 mM glucose + 10% dialyzed FBS, 5.12 µM	126	118	102
RPMI 5 mM glucose + 10% dialyzed FBS, 15.4 µM	103	99.9	104
RPMI 5 mM glucose + 10% dialyzed FBS, 46.1 µM	113	67.7	64.2
